Holding throughout (experiment): inhibition of tumour cell growth, NCI panel, 48 h
In test [1] the test system is ACHN renal.
The subject of test [2] is CCRF-CEM leukemia.
For test [3], the system named is IGROV1 ovarian.
For test [4], the system named is LOX IMVI melanoma.
Test [5] deals with MOLT-4 leukemia.
The subject of test [6] is SK-MEL-5 melanoma.
Test [7] relates to SN12C renal.
The test system of test [8] is SW-620 colon.
Test [9] deals with HL-60(TB) leukemia.
Test [10] relates to UACC-257 melanoma.

Each structure is given as a SMILES string.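 Dose response: 5 concentrations. Exposure: 48 h. Format: 96-well plates. Endpoint: linear interpolation; highest concentration if not reached. The concentration for 50% growth inhibition is given as GI50. TGI is the concentration that stops growth completely.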

For the molecule `COc1cccc(N=Cc2c3ccccc3c(=O)n3c2oc2ccccc23)c1`, the GI50 in [1] was 7.11 µM; in test [2] it was 4.58 µM; in [3], 5.86 µM; in test [4] it was 5.13 µM; in test [5], 2.66 µM; in test [6] it was 17.5 µM. For the same molecule, the GI50 in test [7] is 2.22 µM; in test [8] it was 38 µM. For the same molecule, the TGI was 30 µM in [1]; 73.2 µM in [2]; more than 100 µM in test [3]; 30.3 µM in [4]; 6 µM in [5]; 37.1 µM in [6]. In addition, the TGI in test [7] is 23.5 µM; in test [8], more than 100 µM.
Consider `C#CC[C@]12CC(=O)CC[C@H]1CC(=O)C2`, for which the TGI in test [1], in test [2], in test [9], in test [3], in test [5] and in test [6] was more than 100 µM throughout. For the same molecule, the TGI in test [7], in test [8] and in [10] was more than 100 µM in each case.
Regarding `O=[N+]([O-])c1ccc2nnnn2c1`, the TGI in [1] is more than 100 µM; in test [9], 74.6 µM; in test [3], more than 100 µM; in [4], 35.8 µM; in [5], more than 100 µM; in test [6], 41.4 µM. Moreover, the TGI in test [7], in test [8] and in [10] was more than 100 µM throughout.
In the case of `O=C(CC(=O)N1N=C(c2ccccc2)C(N=Nc2ccc(Cl)cc2)C1=O)Nc1ccccc1Cl` (configuration not stated), the TGI in test [1] is 48.8 µM; in [9], more than 100 µM; in test [3], more than 100 µM; in test [4], more than 100 µM; in [5], more than 100 µM; in [6], 51.4 µM. The TGI in [7] and in [8] was more than 100 µM each time.
`N#C/C(C(=S)Nc1ccccc1)=C1/NN=C2c3ccccc3C(=O)NN21`: the GI50 in [1] was 35.5 µM; in [9] it was 22 µM; in test [3], 35.6 µM; in [4] it was 19.9 µM; in test [5] it was 32.1 µM; in test [6] it was 17 µM. Further, the GI50 in [7] was 40.7 µM; in test [8], 28.7 µM; in test [10] it was 39 µM. Moreover, the TGI was more than 100 µM in [1]; 61.7 µM in [9]; more than 100 µM in test [3]; 52.8 µM in [4]; more than 100 µM in test [5]; 41.1 µM in test [6]. In addition, the TGI in [7], in test [8] and in test [10] was more than 100 µM throughout.
Turning to `COc1cc(-c2c(C#N)c(N)n3c(nc4ccccc43)c2C#N)cc(Br)c1OC`, the GI50 in test [1] was more than 100 µM; in [9], more than 100 µM; in [3], 97.5 µM; in test [4] it was more than 100 µM; in test [5], more than 100 µM; in test [6], 3.3 µM. For the same molecule, the GI50 in test [10] was more than 100 µM. Moreover, the TGI in test [1], in test [9], in test [3], in test [4], in [5] and in test [6] was more than 100 µM each time. The molecule also returned a TGI in [10] of more than 100 µM.
Consider `N#CCCN(c1ccc(/C=C2\N=C(c3ccc(Cl)cc3)OC2=O)cc1)S(=O)(=O)c1ccccc1`, for which the TGI in [1], in test [9], in [3], in test [4], in test [5] and in test [6] was more than 100 µM throughout. In addition, the TGI in [7], in [8] and in test [10] was more than 100 µM each time.
`Nc1c(-c2ccc(Br)cc2)[n+]([O-])c2ccccc2[n+]1[O-]`: the TGI in [1], in test [9], in test [3], in [5], in [6] and in test [7] was more than 100 µM throughout. Besides, the TGI in [8] and in [10] was more than 100 µM each time.
With `C[C@]12CC[C@@H]3c4ccc(O)cc4CC[C@H]3[C@@H]1CC[C@@H]2NS(=O)(=O)c1ccc(C(F)(F)F)cc1`, the GI50 in test [1] was 1.63 µM; in test [2], 2.77 µM; in test [3], 2.45 µM; in test [4], 1.68 µM; in [5], 2.61 µM; in test [6], 1.7 µM. The GI50 was 1.75 µM in [7], 3.23 µM in test [8] and 2.59 µM in [10]. Moreover, the TGI in test [1] was found to be 3.06 µM; in [2], 9.8 µM; in [3] it was 6.23 µM; in [4], 3.06 µM; in test [5] it was 12.7 µM; in test [6] it was 3.07 µM. Besides, the figures for the TGI in [7], in [8] and in test [10] were 3.36 µM, 10.8 µM and 7.57 µM, respectively.
Regarding `N#CCCN(CCC#N)c1ccc(/C=C2\N=C(CN3C(=O)c4ccccc4C3=O)OC2=O)cc1`, the TGI in [1], in test [9], in [3], in [4], in test [5] and in [6] was more than 100 µM in each case. The TGI in test [7], in test [8] and in [10] was more than 100 µM in each case.
For `Cc1ccc(N=NC(C(=O)c2ccccc2)C(=O)c2ccccc2)cc1`, the TGI was more than 100 µM in test [1]; 69.4 µM in test [2]; 33.7 µM in test [9]; more than 100 µM in [3]; 63 µM in [5]; 55.1 µM in test [6]. Besides, the TGI in test [7] is 55.2 µM; in test [8], more than 100 µM; in test [10] it was more than 100 µM.

These data come from PubChem BioAssay (NCI).
